# Columns and labels:
# Assay in all cases: relative viability (nuclei count vs DMSO), 5 days (fraction); higher = more cells survive
# [1] = compound: Cc1ccc2nc(NCCN)c3ncc(C)n3c2c1 + CC1(C)CCC(c2ccc(Cl)cc2)=C(CN2CCN(c3ccc(C(=O)NS(=O)(=O)c4ccc(N[C@H](CCN5CCOCC5)CSc5ccccc5)c(S(=O)(=O)C(F)(F)F)c4)cc3)CC2)C1 [Navitoclax] (partner 0.5 µM)
# Outline: (§1)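 Lung cancer cell lines were seeded in 1536-well plates and dosed by pin tool the next day, with either a single drug or a fixed anchor-drug dose combined with five library-drug doses (not always all listed) spaced in √10 steps. Five days later, one step fixed the cells and stained their nuclei (final 0.05% Triton X-100, 1% formaldehyde, 1 ug/ml Hoechst), and nuclei were counted on 4× images. Relative viability is the nuclei count in treated wells divided by the count in vehicle wells, and each value is the median of duplicate plates.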
# [2] = compound: Cc1ccc2nc(NCCN)c3ncc(C)n3c2c1 + COc1cccc2cc(-c3nc([C@H]4CC[C@H](C(=O)O)CC4)n4ncnc(N)c34)[nH]c12 [OSI-027] (partner 0.5 µM)
# Outline: as §1
# Salubrinal + Navitoclax = compound: O=C(/C=C/c1ccccc1)NC(NC(=S)Nc1cccc2cccnc12)C(Cl)(Cl)Cl [Salubrinal] + CC1(C)CCC(c2ccc(Cl)cc2)=C(CN2CCN(c3ccc(C(=O)NS(=O)(=O)c4ccc(N[C@H](CCN5CCOCC5)CSc5ccccc5)c(S(=O)(=O)C(F)(F)F)c4)cc3)CC2)C1 [Navitoclax] (partner 0.5 µM)
# Outline: as §1
# Salubrinal + Lapatinib = compound: O=C(/C=C/c1ccccc1)NC(NC(=S)Nc1cccc2cccnc12)C(Cl)(Cl)Cl [Salubrinal] + CS(=O)(=O)CCNCc1ccc(-c2ccc3ncnc(Nc4ccc(OCc5cccc(F)c5)c(Cl)c4)c3c2)o1 [Lapatinib] (partner 2 µM)
# Outline: as §1
cell line,measurement,setting,value
UMC-11,relative viability,[1]; first compound 0.04 µM,0.315
same,relative viability,[1]; first compound 0.1265 µM,0.342
same,relative viability,[1]; first compound 0.4 µM,0.33
same,relative viability,[1]; first compound 1.265 µM,0.324
same,relative viability,[1]; first compound 4 µM,0.365
same,relative viability,[2]; first compound 0.04 µM,0.51
same,relative viability,[2]; first compound 0.1265 µM,0.471
same,relative viability,[2]; first compound 0.4 µM,0.481
same,relative viability,[2]; first compound 1.265 µM,0.416
same,relative viability,[2]; first compound 4 µM,0.47
same,relative viability,Salubrinal + Navitoclax; first compound 0.08 µM,0.281
same,relative viability,Salubrinal + Navitoclax; first compound 0.253 µM,0.301
same,relative viability,Salubrinal + Navitoclax; first compound 0.8 µM,0.329
same,relative viability,Salubrinal + Navitoclax; first compound 2.53 µM,0.318
same,relative viability,Salubrinal + Navitoclax; first compound 8 µM,0.305
same,relative viability,Salubrinal + Lapatinib; first compound 0.08 µM,0.931
same,relative viability,Salubrinal + Lapatinib; first compound 0.253 µM,0.918
same,relative viability,Salubrinal + Lapatinib; first compound 0.8 µM,1.48
same,relative viability,Salubrinal + Lapatinib; first compound 2.53 µM,1.11
same,relative viability,Salubrinal + Lapatinib; first compound 8 µM,1.16

# — the supplement of paper PMC10307832
